Experimental data from ChEMBL document CHEMBL1201862, “PubChem BioAssay data set” (2004).
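Results reflect a 48-hour exposure of cells in 96-well plates to compound at five concentrations. At the GI50, growth is halved.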 Active and inactive are the calls of the source. Rule as the data show it: active = GI50 up to about 1.1 µM and inactive = higher.

Assays:
Experiment in all cases: NCI anticancer screen, dose series, 48 h
[1] = system: IGROV-1
[2] = system: HCC 2998
[3] = system: NCI/ADR-RES
[4] = system: RXF 393
[5] = system: CAKI-1
[6] = system: MDA-MB-231
[7] = system: HCT-15
[8] = system: HCT-116
[9] = system: UO-31
[10] = system: M14
[11] = system: MCF7
[12] = system: NCI-H522
[13] = system: MDA-MB-435
[14] = system: SN12C
[15] = system: NCI-H23
[16] = system: BT-549
[17] = system: SK-MEL-2
[18] = system: ACHN
[19] = system: RPMI-8226
[20] = system: RXF 631

Row | SMILES | GI50 [1] | GI50 [2] | GI50 [3] | GI50 [4] | GI50 [5] | GI50 [6] | GI50 [7] [µM] | GI50 [8] | GI50 [9] | GI50 [10] | GI50 [11] | GI50 [12] | GI50 [13] | GI50 [14] | GI50 [15] | GI50 [16] | GI50 [17] | GI50 [18] | GI50 [19] | GI50 [20]
1 | COP(=O)(OC)/C(=C/c1cn(C(c2ccccc2)(c2ccccc2)c2ccccc2)cn1)NC=O | 20.5 µM (inactive) | 16.7 µM (inactive) | 17.3 µM (inactive) | 16.3 µM (inactive) | 20.4 µM (inactive) | 16.2 µM (inactive) | 25.6 | 13.8 µM (inactive) | 12.9 µM (inactive) | 15.1 µM (inactive) | 16 µM (inactive) | 15.5 µM (inactive) | 18.1 µM (inactive) | 19.2 µM (inactive) | 19.5 µM (inactive) | 16 µM (inactive) | 16.9 µM (inactive) | 12.1 µM (inactive) | 32 µM (inactive) | 
2 | NC1=Nc2ccccc2Sc2cccc(F)c21 | > 100 µM (inactive) | > 100 µM (inactive) | 43.7 µM (inactive) | 24.9 µM (inactive) | > 100 µM (inactive) | > 100 µM (inactive) | > 100 | 29.1 µM (inactive) | 84.5 µM (inactive) | 50.9 µM (inactive) | 65 µM (inactive) | 64.4 µM (inactive) | 74 µM (inactive) | > 100 µM (inactive) | 48.6 µM (inactive) | 95.3 µM (inactive) | > 100 µM (inactive) | > 100 µM (inactive) | 36 µM (inactive) | 
3 | CCc1n[nH]c(=O)n1CCCCCCCCCCCCn1c(CC)n[nH]c1=O | 29.5 µM (inactive) | 34.5 µM (inactive) | 28.6 µM (inactive) | 37 µM (inactive) | 27.7 µM (inactive) | 28.1 µM (inactive) | 40.9 | 27 µM (inactive) | 30.7 µM (inactive) | 25.9 µM (inactive) | 23.9 µM (inactive) | 26.2 µM (inactive) | 23.1 µM (inactive) | 59.8 µM (inactive) | 20.2 µM (inactive) | 26.8 µM (inactive) | 52.8 µM (inactive) | 25.2 µM (inactive) | 18.6 µM (inactive) | 
4 | CC(C)C[C@H](NC(=O)CCc1cccc2ccccc12)B(O)O | 2.13 µM (inactive) | 0.64 µM (active) | 1.95 µM (inactive) | 0.54 µM (active) | 0.368 µM (active) | 2.25 µM (inactive) | 1.26 | 0.473 µM (active) | 1.94 µM (inactive) | 0.942 µM (active) | 0.56 µM (active) | 1.24 µM (inactive) | 0.31 µM (active) | 2.19 µM (inactive) | 1.16 µM (inactive) | 0.506 µM (active) | 1.03 µM (active) | 0.498 µM (active) | 0.331 µM (active) | 
5 | CC1=CC(C)(C)[C@H]2O[C@@]3(O)C[C@]4(C)[C@H]5C[C@@](C(C)C)(O[C@H]4c4ccoc4)O[C@H]4[C@]5(C3)O[C@@]1(O)[C@]24O | > 100 µM (inactive) | > 100 µM (inactive) | > 100 µM (inactive) | > 100 µM (inactive) | > 100 µM (inactive) | 81.3 µM (inactive) | > 100 | 61.8 µM (inactive) | > 100 µM (inactive) | > 100 µM (inactive) | > 100 µM (inactive) | 5.26 µM (inactive) | > 100 µM (inactive) | > 100 µM (inactive) | > 100 µM (inactive) | > 100 µM (inactive) | > 100 µM (inactive) | > 100 µM (inactive) | > 100 µM (inactive) | 
6 | O=[Se](O)O | 0.826 µM (active) | > 20.3 µM (inactive) | 4.57 µM (inactive) | 3.76 µM (inactive) | 34.2 µM (inactive) | 1 µM (active) | 3.15 | 2.36 µM (inactive) | 2.95 µM (inactive) | 3.44 µM (inactive) | 9.75 µM (inactive) | 12.2 µM (inactive) | 3.77 µM (inactive) | 1.24 µM (inactive) | 3.72 µM (inactive) | 4.9 µM (inactive) | 2.6 µM (inactive) | 4 µM (inactive) | 3.29 µM (inactive) | 
7 | CCCCCCCCOCC(CO)OCCCCCCCC (stereo not given) | 21.7 µM (inactive) | 18.9 µM (inactive) |  |  | 30.5 µM (inactive) |  | 15.9 | 19.4 µM (inactive) | 20 µM (inactive) | 26.1 µM (inactive) |  |  |  | 17.4 µM (inactive) | 18.7 µM (inactive) |  |  | 17.2 µM (inactive) | 21.7 µM (inactive) | 17.7 µM (inactive)
8 | C[C@@]12CCC3C1C=C1C(=O)c4cc(O)ccc4C(=O)[C@]1(O2)[C@@]3(C)C=O | 5.55 µM (inactive) | 2.97 µM (inactive) | 9.31 µM (inactive) | 4.3 µM (inactive) | 4.09 µM (inactive) | 8.71 µM (inactive) | 2.66 | 3.52 µM (inactive) | 4.9 µM (inactive) | 8.34 µM (inactive) | 3.52 µM (inactive) | 2.94 µM (inactive) | 3.15 µM (inactive) | 2.02 µM (inactive) | 3.93 µM (inactive) | 2.51 µM (inactive) | 8.91 µM (inactive) | 7.11 µM (inactive) | 2.2 µM (inactive) | 
9 | COC(=O)C(Cc1cc(OC)c(OC)c(OC)c1)c1ccc(OC)cc1 (stereo not given) | > 100 µM (inactive) |  |  | > 100 µM (inactive) | > 100 µM (inactive) |  | > 100 | > 100 µM (inactive) | > 100 µM (inactive) | > 100 µM (inactive) |  | 90.4 µM (inactive) |  | > 100 µM (inactive) |  |  |  | > 100 µM (inactive) | 44.7 µM (inactive) | > 100 µM (inactive)
10 | CC[C@]12CCCN3CCc4c(n(c5ccccc45)C(=O)C1)[C@@H]32 [VINBURNINE] | 5.85 µM (inactive) | 3.92 µM (inactive) | 3.25 µM (inactive) | 15.6 µM (inactive) | > 100 µM (inactive) | 9.35 µM (inactive) | 4.15 | 3.86 µM (inactive) | 4.75 µM (inactive) | 3.97 µM (inactive) | 3.51 µM (inactive) | 2.32 µM (inactive) | 1.26 µM (inactive) | 12.9 µM (inactive) | 13.7 µM (inactive) | 24.7 µM (inactive) | 4.92 µM (inactive) | 32.4 µM (inactive) | 4.56 µM (inactive) | 
11 | O=C1CCc2ccc(O)c(c2)Oc2ccc(cc2)C(Sc2ccccc2)CCO1 (stereo not given) | 13.3 µM (inactive) | 17.1 µM (inactive) | 14.1 µM (inactive) | 17.8 µM (inactive) | 14.1 µM (inactive) | 3.85 µM (inactive) | 13.7 | 16.2 µM (inactive) | 14.4 µM (inactive) | 15.1 µM (inactive) | 12.1 µM (inactive) | 13.2 µM (inactive) | 17.1 µM (inactive) | 15.8 µM (inactive) | 13.1 µM (inactive) | 14.4 µM (inactive) | 15.8 µM (inactive) | 15.1 µM (inactive) | 13.5 µM (inactive) | 
12 | CC(=O)Nc1ccc(C2SCc3nc4ccccc4n32)cc1 (stereo not given) | > 91 µM (inactive) | > 100 µM (inactive) | 33.5 µM (inactive) | > 100 µM (inactive) | 39.2 µM (inactive) | 26.2 µM (inactive) | 47.3 | > 100 µM (inactive) | 44.3 µM (inactive) | > 100 µM (inactive) | 57 µM (inactive) | 66.5 µM (inactive) | > 100 µM (inactive) | > 100 µM (inactive) | 34.6 µM (inactive) | > 35.7 µM (inactive) | > 100 µM (inactive) | 96.4 µM (inactive) | 47.6 µM (inactive) | 
13 | COc1ccc2nccc(NCCCN3CCN(CCCNc4ccnc5ccc(OC)cc45)CC3)c2c1 | 0.283 µM (active) | 0.505 µM (active) | 18.2 µM (inactive) | 1.32 µM (inactive) | 3.69 µM (inactive) | 0.357 µM (active) | 11.8 | 0.221 µM (active) | 8.13 µM (inactive) | 1.08 µM (active) | 0.0403 µM (active) | 0.0334 µM (active) | 0.427 µM (active) | 0.177 µM (active) | 0.51 µM (active) | 4.27 µM (inactive) | 1.25 µM (inactive) | 1.45 µM (inactive) | 0.264 µM (active) | 
14 | Nc1nnc(-c2ccco2)c(-c2ccco2)n1 | > 100 µM (inactive) | > 100 µM (inactive) | > 100 µM (inactive) | > 100 µM (inactive) | > 100 µM (inactive) | > 100 µM (inactive) | > 100 | > 100 µM (inactive) | 49.9 µM (inactive) | > 100 µM (inactive) | > 100 µM (inactive) | > 100 µM (inactive) | > 100 µM (inactive) | > 100 µM (inactive) | > 100 µM (inactive) | > 100 µM (inactive) | > 100 µM (inactive) | > 100 µM (inactive) | > 100 µM (inactive) | 
15 | C[C@@H](NC(=O)c1ccc(CNC(=O)/C=C/c2cccc(Oc3ccccc3)c2)cc1)c1ccccc1 | 48.1 µM (inactive) | > 100 µM (inactive) | > 100 µM (inactive) | 2.51 µM (inactive) | 14.7 µM (inactive) | > 100 µM (inactive) | > 100 | > 69.3 µM (inactive) | 10.7 µM (inactive) | 99.1 µM (inactive) | 97.1 µM (inactive) | > 66.7 µM (inactive) | > 100 µM (inactive) | > 100 µM (inactive) | > 100 µM (inactive) | > 94 µM (inactive) | > 60.1 µM (inactive) | 12.5 µM (inactive) | > 100 µM (inactive) | 
16 | O=C(OCC(OC(=O)c1ccccc1)C1CC(C(O)C2CCCCC2)C(=O)O1)c1ccccc1 (stereo not given) | 32.2 µM (inactive) | 47.9 µM (inactive) | 23.2 µM (inactive) | > 100 µM (inactive) | > 100 µM (inactive) | > 100 µM (inactive) | 43.2 | 31.6 µM (inactive) | > 100 µM (inactive) | 63.7 µM (inactive) | 31.7 µM (inactive) | 22.2 µM (inactive) | > 100 µM (inactive) | 47.6 µM (inactive) | > 100 µM (inactive) | 53 µM (inactive) | > 100 µM (inactive) | > 100 µM (inactive) | 24.2 µM (inactive) | 
